Assay results: patent US20240368710A1, “STREAMLINED PLATFORM FOR BACTERIAL IDENTIFICATION AND ANTIBIOTIC SUSCEPTIBILITY TEST” (THE JOHNS HOPKINS UNIVERSITY, priority 2017, published 2024)

Experiments:
[1] = test system: E. coli; assay: bulk qPCR/HRMA antibiotic susceptibility test (growth by 16S rDNA Cq); type: cell-based, Escherichia coli; settings: for Cq value compared to the no-drug (growth) controls: 2 hours of incubation with gentamicin (1 μg/mL, FIG. 6A)
Protocol: (§1) FIG. 1 illustrates a protocol for combined ID (Identification of pathogen species) and AST (antibiotic susceptibility test) in bulk format. The protocol begins by dividing the sample into 2 portions; with and without antibiotic followed by brief incubation. Then, the cultured samples are added into PCR mixture to perform qPCR & HRMA. An additional step of DNA isolation may be performed prior to PCR. AST is determined based on Cq differences (ΔCq) and ID is obtained from HRMA based classification.
FIG. 5A-5B illustrates the comparison between the proposed AST approaches to conventional broth microdilutional method. […] (b) Conventional broth microdilutional method of the same drug concentration with overnight incubation.
FIG. 6A-6C illustrates an integrated broad-scale pathogen identification and growth detection via qPCR and HRMA. (a) Measurement of bacterial growth of E. coli and S. aureus under treatment of gentamicin (1 μg/mL) via qPCR detection of 16S rDNA. The growth status and antibiotic susceptibility of bacteria were determined by comparing the Cq value to the no-drug control. (b) Measured melt curves from amplicons of E. coli and S. aureus for both sensitive and resistant strands. […]
(§2) The inventors have designed an assay protocol to enable combined ID and AST into a single step process (FIG. 1) and using the whole blood sample as an example (FIG. 4). […] The subsequent translation to the microfluidic single-cell assay in described below can facilitate digital diagnostics with enhanced sensitivity, specificity and quantification capability.
The present invention measures bacterial growth by quantifying the bacterial DNA content using qPCR. […] When performing AST, the sample from culture tubes are added to PCR mixes immediately after brief bacterial culture for subsequent detection and quantification of bacterial DNA via qPCR. The quantification cycle (Cq) value indicates the difference in growth rate of different strains under the drug treatment; thereby the antibiotic susceptibility can be determined. […]

[2] = test system: S. aureus; assay: as above; type: cell-based, Staphylococcus aureus; settings: 2 hours of incubation with gentamicin (1 μg/mL, FIG. 6A)
Protocol: as §1
FIG. 6A-6C illustrates an integrated broad-scale pathogen identification and growth detection via qPCR and HRMA. […] The growth status and antibiotic susceptibility of bacteria were determined by comparing the Cq value to the no-drug control. (b) Measured melt curves from amplicons of E. coli and S. aureus for both sensitive and resistant strands. […]
as §2
The present invention measures bacterial growth by quantifying the bacterial DNA content using qPCR. […]

[3] = test system: E. faecalis; assay: digital PCR/HRMA AST of mixed sample in 96-well plate; type: cell-based, Enterococcus faecalis; settings: sensitive strain in mix with S. aureus; 2 hours with and without 8 μg/mL of gentamicin; DNA diluted 60000-fold
Protocol: (§3) FIG. 2 illustrates a protocol for combined ID and AST using digital detection. The protocol begins by dividing the sample into 2 portions; with and without antibiotic followed by brief incubation. DNA isolation can be performed to extract bacterial DNA from the samples. Then, the samples are mixed with PCR mixture and diluted across very large number of isolated small volume reactions so that there is either zero or one bacterial DNA present in any individual reaction to perform digital PCR & digital HRMA. ID is obtained from HRMA based classification on each positive reactions. AST of each target bacterial species is determined by comparing the quantity of the DNA of the target bacteria from the 2 portions which indicates by the total number of positive identification associated to the identified target bacteria species.
(§4) FIG. […] Orange lines represent S. aureus and blue lines represent E. faecalis. (a) Melt curves from the sample incubated without gentamicin (b) Melt curves from the sample incubated with gentamicin (c) AST can be determined using absolute count of each species which bases on the total number of positive reactions of each specific melt curve from HRMA.
(§5) This method (FIG. 2) begins by splitting the sample to incubate with and without antibiotic. […] The species of unidentified bacteria in each positive reactions is then determined preferably using HRMA. […]

[4] = test system: S. aureus; assay: as above; type: cell-based, Staphylococcus aureus; settings: sensitive strain in mix with E. faecalis; 2 hours with and without 8 μg/mL of gentamicin; DNA diluted 60000-fold
Protocol: as §3, §4, §5

Substance: gentamicin
- MIC range by ΔCq approach ([1]; E. coli sensitive strain, gentamicin 0.125-8 μg/mL, FIG. 5): corresponds to standard CLSI MIC value and the conventional method
- Cq value compared to the no-drug (growth) controls ([1]; resistant strand of E. coli): close to the no-drug controls
- Cq value compared to the no-drug (growth) controls ([1]; sensitive strand of E. coli): increased Cq value
- Cq value compared to the no-drug (growth) controls ([2]; resistant strand of S. aureus): close to the no-drug controls
- Cq value compared to the no-drug (growth) controls ([2]; sensitive strand of S. aureus): increased Cq value
- count of no-gentamicin controls greater than gentamicin-treated samples [3]: 3-5 folds
- count of no-gentamicin controls greater than gentamicin-treated samples [4]: 3-5 folds
